Data set [1] concerns Human immunodeficiency virus 1. Put plainly: Antiviral activity against wild type HIV-1 IIIB infected in human MT4 cells assessed as protection against virus-induced cytopathic effect incubated for 5 days by MTT assay. The class given is functional, organism-based. Particulars: Human immunodeficiency virus 1, IIIB, MT4, 120 h. A general note: Protection from cytopathic effect is a common read-out in antiviral testing.

A short description of data set [2]: Cytotoxicity against human MT4 cells assessed as reduction in cell viability incubated for 5 days by MTT assay. The class given is toxicity, cell-based. Particulars: time 5 day. A general note: Tetrazolium assays rely on reduction of a dye to a coloured formazan, in cell work by metabolically active cells.
Data set [3] can be described thus: Selectivity index, ratio of CC50 for cytotoxicity against human MT4 cells assessed as reduction in cell viability to EC50 for antiviral activity against human MT4 cells assessed as protection against virus-induced cytopathic effect. The class given is toxicity, cell-based. Particulars: read-out: Ratio CC50/EC50.
The test system of data set [4] is Human immunodeficiency virus 1. Put plainly: Antiviral activity against NNRTI-resistant HIV-1 harboring L100I mutant infected in human MT4 cells assessed as protection against virus-induced cytopathic effect incubated for 5 days by MTT assay. The class given is functional, organism-based. Particulars: Human immunodeficiency virus 1, MT4, 120 h.
The test system of data set [5] is Human immunodeficiency virus 1. Put plainly: Antiviral activity against NNRTI-resistant HIV-1 harboring K103N mutant infected in human MT4 cells assessed as protection against virus-induced cytopathic effect incubated for 5 days by MTT assay. The class given is functional, organism-based. Particulars: Human immunodeficiency virus 1, MT4, 120 h.
Data set [6] relates to Human immunodeficiency virus 1. Put plainly: Antiviral activity against NNRTI-resistant HIV-1 harboring Y181C mutant infected in human MT4 cells assessed as protection against virus-induced cytopathic effect incubated for 5 days by MTT assay. The class given is functional, organism-based. Particulars: Human immunodeficiency virus 1, MT4, 120 h.
Data set [7] deals with Human immunodeficiency virus 1. Briefly: Antiviral activity against NNRTI-resistant HIV-1 harboring Y188L mutant infected in human MT4 cells assessed as protection against virus-induced cytopathic effect incubated for 5 days by MTT assay. The class given is functional, organism-based. Particulars: Human immunodeficiency virus 1, MT4, 120 h.
Data set [8] relates to Human immunodeficiency virus 1. Put plainly: Antiviral activity against NNRTI-resistant HIV-1 harboring E138K mutant infected in human MT4 cells assessed as protection against virus-induced cytopathic effect incubated for 5 days by MTT assay. The class given is functional, organism-based. Particulars: Human immunodeficiency virus 1, MT4, 120 h.
Data set [9] has as its system Human immunodeficiency virus 1. Put plainly: Antiviral activity against NNRTI-resistant HIV-1 harboring F227L/V106A double mutant infected in human MT4 cells assessed as protection against virus-induced cytopathic effect incubated for 5 days by MTT assay. Particulars: Human immunodeficiency virus 1, MT4, 120 h. The format is functional, organism-based.
Data set [10] relates to Human immunodeficiency virus 1. Put plainly: Antiviral activity against NNRTI-resistant HIV-1 harboring RES056 mutant infected in human MT4 cells assessed as protection against virus-induced cytopathic effect incubated for 5 days by MTT assay. Particulars: Human immunodeficiency virus 1, MT4, 120 h. The format is functional, organism-based.
In data set [11] the target is Human immunodeficiency virus type 1 reverse transcriptase (Human immunodeficiency virus 1, UniProt Q72547). Briefly: Inhibition of wild type HIV-1 reverse transcriptase assessed as reduction in biotin-dUTP incorporation in cDNA preincubated with compound for 1 hr in presence of biotin-labeled dNTPs by ELISA. For orientation: An ELISA detects its analyte on a solid surface through an enzyme-linked reagent.

Data set [12] has as its system Human immunodeficiency virus 1. Put plainly: Potency index, ratio of efavirenz EC50 to test compound EC50 for antiviral activity against NNRTI-resistant HIV-1 harboring L100I mutant infected in human MT4 cells assessed as protection against virus-induced cytopathic effect incubated for 5 days by MTT assay. The class given is functional. Particulars: time 5 day.
The test system of data set [13] is Human immunodeficiency virus 1. Briefly: Potency index, ratio of efavirenz EC50 to test compound EC50 for antiviral activity against NNRTI-resistant HIV-1 harboring K103N mutant infected in human MT4 cells assessed as protection against virus-induced cytopathic effect incubated for 5 days by MTT assay. The class given is functional. Particulars: time 5 day.
Data set [14] relates to Human immunodeficiency virus 1. Put plainly: Potency index, ratio of efavirenz EC50 to test compound EC50 for antiviral activity against NNRTI-resistant HIV-1 harboring F227L/V106A double mutant infected in human MT4 cells assessed as protection against virus-induced cytopathic effect incubated for 5 days by MTT assay. The format is functional. Particulars: time 5 day.

Consider `Cc1cc(/C=C/C#N)cc(C)c1Oc1nc(Nc2ccc(N3CCS(=O)(=O)CC3)c(F)c2)ncc1-c1cnc(F)nc1`, for which the EC50 (commonly the concentration that produces a half-maximal response) in [1] came to 0.013 µM; in data set [4], 0.051 µM; in data set [5] it was 0.013 µM; in data set [6] it was 0.12 µM; in data set [7] it was 6.5 µM; in [8] it was 0.055 µM. Further, the EC50 in [9] was 0.21 µM; in data set [10] it was 1.59 µM. In addition, the CC50 (usually the concentration giving 50% cytotoxicity) at 120 h in data set [2] stood at 28.8 µM. The selectivity ratio in data set [3] was 2270. Moreover, in [11], the IC50 (in general, the concentration at which inhibition is half-maximal) turned out to be 0.35 µM.
Regarding `Cc1cc(/C=C/C#N)cc(C)c1Oc1nc(Nc2ccc(N3CCN(S(C)(=O)=O)CC3)c(C#N)c2)ncc1-c1ccc(N)nc1`, the EC50 was found to be 0.0064 µM in data set [1]; 0.0094 µM in [4]; 0.0062 µM in data set [5]; 0.034 µM in data set [6]; 0.25 µM in data set [7]; 0.03 µM in [8]. Besides, the concentration for a half-maximal effect (EC50) came out at 0.03 µM in data set [9] and 0.21 µM in data set [10]. Further, the CC50 at 120 h in data set [2] was 161 µM. Further, the selectivity ratio in data set [3] stood at 25300. Further, in data set [11], the IC50 was found to be 0.41 µM. For the same compound, the “Ratio EC50” value in [12] is 3.7; in [13], 12.6; in data set [14], 7.
Regarding `Cc1cc(/C=C/C#N)cc(C)c1Oc1nc(Nc2ccc(N3CCS(=O)(=O)CC3)c(F)c2)ncc1-c1cncnc1`, the EC50 in [1] amounted to 0.0054 µM; in data set [4] it was 0.09 µM; in data set [5] it was 0.0067 µM; in [6], 0.17 µM; in [7], 1.27 µM; in [8] it was 0.053 µM. The EC50 in data set [9] is 0.28 µM; in data set [10] it was 1.35 µM. In data set [2], the CC50 at 120 h was > 219 µM. For the same compound, in data set [3], the selectivity ratio is > 40500. Moreover, the IC50 in data set [11] was 0.2 µM.

The record behind these values is ChEMBL document CHEMBL6109097, “Structure-based design of novel 2,4,5-trisubstituted pyrimidine derivatives as potent HIV-1 NNRTIs by exploiting the tolerant regions in NNTRIs binding pocket” (Eur J Med Chem, 2025).
